These results are taken from publication PMC10574351, “First-Row Transition Metal Complexes Incorporating the 2-(2′-pyridyl)quinoxaline Ligand (pqx), as Potent Inflammatory Mediators: Cytotoxic Properties and Biological Activities against the Platelet-Activating Factor (PAF) and Thrombin” (Molecules, 2023).

As a reminder, the IC50 is the midpoint of a concentration-inhibition curve.

The test system of data set [1] is thrombin-induced aggregation in washed rabbit platelets (WRPs). In words: Inhibition of thrombin-induced aggregation in washed rabbit platelets. Format: cell-based. Conditions: for IC50: washed rabbit platelets, mean ± SD, read-out: IC50 (μM) towards Thrombin in WRPs. The protocol:
The biological experiments of PAF-induced platelet aggregation as well as the evaluation of the inhibitory effect of its synthetic compounds were performed according to thoroughly described protocols. The inhibitory effect of the starting materials (pqx = 2-(2′-pyridyl)quinoxaline, CrCl3 × 3H2O, MnCl2 × 4H2O, FeCl2 × 4H2O, CoCl2 × 6H2O, NiCl2 × 6H2O, CuCl2 × 2H2O, ZnCl2) and of the coordination compounds 1–7, towards PAF and thrombin related biological activities (aggregation experiments) in washed rabbit platelets (WRPs) was carried out according to previously described protocols. Briefly, in order to obtain the washed rabbit platelets (WRPs), platelet-rich plasma was washed on Ficoll–Paque cushions and adjusted to […] platelets/mL of Tyrode’s buffer, pH 7.2. The dilution of PAF was prepared using pyrogen-free 0.15 M NaCl containing 2.5 mg/mL of crystallized bovine serum albumin, required for dispersion of PAF. The compounds under investigation were firstly dissolved in the appropriate solvent that is: DMSO for pqx (0.010 M), H2O for CrCl3 × 3H2O (0.016 M), H2O for MnCl2 × 4H2O (0.004 M), DMSO-EtOH (4/1, v/v)) for FeCl2 × 4H2O (0.014 M), H2O for CoCl2 × 6H2O (0.010 M), H2O for NiCl2 × 6H2O (0.010 M), H2O for CuCl2 × 2H2O (0.008 M), H2O for ZnCl2 (0.013 M), DMSO for 1 (0.017 M), DMSO for 2 (0.010 M0, DMSO for 3 (0.004 M), DMSO for 4 (0.002 M), DMSO for 5 (0.003 M), DMSO-EtOH-H2O (25/1/1, v/v)) for 6 (0.006 M), DMSO for 7 (0.002 M) and aliquots of these solutions were then added in solutions (2.5 mg BSA/mL) of saline.
The experiment on the inhibitory effect of each compound of interest against the washed rabbit platelets (WRPs) aggregation was carried out as per the already described method. The platelets were from male New Zealand white rabbits (about 20), individually housed in stainless steel cages in an air-conditioned room (19 ± 1 °C, 55 ± 5% humidity on a 12/12 h artificial light/dark cycle). Blood samples were drawn from the main ear artery. Microliters of PAF in a final concentration of about 10^–10 M were added to the cuvette of the aggregometer, and the height of the platelet aggregation was monitored. The platelet aggregation induced by PAF, or thrombin was measured before (considered as 0% inhibition) and after the addition of various concentrations of the examined sample, creating a linear curve of percentage inhibition (ranging from 0 to 100%) versus different concentrations of the sample. From this curve, the concentration of the sample that inhibited 50% PAF-induced aggregation was calculated, and this value was defined as IC50 (Inhibitory concentration for 50% Inhibition). Dithiothreitol-insensitive PAF choline phosphotransferase, lyso-PAF:acetyl-CoA acetyltransferase and PAF-acetylhydrolase activity assays were performed on the homogenates of rabbit leukocytes while the activity of lipoprotein-associated phospholipase A2 was assessed on plasma as previously described. The experiments were performed in a model 400 vs. aggregometer of Chrono-Log (Havertown, PA, USA) coupled to a Chrono-Log recorder at 37 °C with constant stirring at 1200 rpm. The separation of platelets was performed with centrifugations in a 3L-R Heraeus Labofuge (Hvanau, Germany), a 400R Heraeus Labofuge and an RC-5B Sorvall (Newtown, CT, USA) refrigerated super speed centrifuge. Bovine serum albumin (BSA), PAF and analytical solvents for the biological assays were purchased from Sigma. Standard active thrombin was purchased from Sigma, St. Lewis, MO, USA. The measurements were performed in duplicates for each sample concentration in three different WRP preparations, in order to ensure reproducibility. All experiments were also followed by appropriate control tests of the solvent used (saline solution of BSA, DMSO aliquots in a saline solution of BSA-2.5 mg BSA/mL saline- or just in saline), in WRPs. […]

Data set [2] concerns HeLa cells (cervical cancer cells). In words: MTT cell viability assay, HeLa. The class given is cell-based, human. Conditions: for IC50: 48 h exposure, mean ± SD; for cytotoxic effect in HeLa: 48 h, concentrations up to 100 μΜ. The protocol:
In this report, cell viability tests were conducted in HEK293T and HeLa cancer cells by means of the colorimetric 3-(4,5-dimethylthiazol-2-yl)-2,5-diphenyl tetrazolium bromide (MTT) assay after exposure for 48 h. A HeLa cancer cell line was selected since it is widely used in cytotoxicity studies. For all complexes, a 10 mM stock solution in DMSO (H2O for cisplatin) was prepared and diluted appropriately to reach the final concentration reported in the Materials and Methods. The non-cancerous HEK293T cell line was used for comparison. The IC50 values of the first-row metal complexes, the pqx ligand and cisplatin, presented herein were calculated using a dose-response model, which was obtained from sigmoidal fitting of dose-response curves.
The HEK293T cell line (immortalized human embryonic kidney cells) was obtained from the Biomedical Research Foundation Academy of Athens (BRFAA), Athens, Greece and the HeLa cell line (cervical cancer cells) was obtained from the National Centre For Scientific Research Demokritos (NCSR Demokritos), Athens, Greece.
Pqx metal complexes were diluted in stock solutions of 10 mM in dimethyl sulfoxide (DMSO). A similar concentration of cisplatin dissolved in H2O was used. HEK293T and HeLa cells were cultured in Dulbecco’s modified Eagle’s medium (DMEM) with high glucose (Biosera, Nuaille, France) supplemented with 10% fetal bovine serum at 37 °C and 5% CO2. Cells were seeded in sterile tissue culture 96-well plates (SPL Life Science, Pochon, Republic of Korea) at a density of 3000 cells per well. After 24 h, the medium was removed and replaced with fresh media containing various concentrations (0.01 μΜ, 0.1 μΜ, 1 μΜ, 10 μΜ, 25 μΜ, 40 μΜ, 55 μΜ, 70 μΜ, 85 μΜ and 100 μΜ) of the compounds to be tested and was further incubated for 48 h at 37 °C. Dimethyl sulfoxide (DMSO) was used as a vehicle at ≤1%. To measure cytotoxicity, a culture medium containing the compounds (or DMSO) was removed, and 100 μL of 0.5 mg/mL MTT reagent (Applichem, Darmstadt, Germany) diluted in DMEM was added to the cells for 3 h at 37 °C. After 3 h incubation in identical conditions, MTT was removed and 200 μL of DMSO was added. Absorbance values of formazan were measured at 540 nm using a BioTek Synergy H1 microplate reader (Agilent, Santa Clara, CA, USA). All compounds were tested in triplicate. The results were statistically analyzed using the nonlinear regression by GraphPad PRISM (Version 9).
Background: Tetrazolium assays rely on reduction of a dye to a coloured formazan, in cell work by metabolically active cells.

As for `CS(C)=O.[Cl][Cu][Cl].c1ccc(-c2cnc3ccccc3n2)nc1` [Complex 3, [Cu(pqx)Cl2(DMSO)]], the IC50 was 3.1 ± 0.4 µM in data set [1] and 27.2 ± 1.23 µM in data set [2].
In the case of `[Cl][Zn][Cl].c1ccc(-c2cnc3ccccc3n2)nc1` [Complex 4, [Zn(pqx)Cl2]], the “fold decrease of thrombin IC50 relative to the metal precursor” value in data set [1] (complex versus its metal precursor) is ~ 12 fold. For the same molecule, the IC50 in data set [1] is 3.5 ± 0.3 µM; in data set [2], 77.8 ± 6.51 µM.
As to [Co(pqx)Cl2(DMF)] [Complex 2], the IC50 in data set [1] turned out to be 8.9 ± 1.3 µM. In addition, in data set [2], the “cytotoxic effect in HeLa” value is recorded as “only slightly affected” and the IC50 stood at 89.1 ± 7.77 µM.
Take [Fe(pqx)Cl2]2 [Complex 6]: the values for the IC50 in data set [1] and in data set [2] were 0.46 ± 0.03 µM and 70.9 ± 2.5 µM, respectively.
For the molecule [Mn(pqx)(H2O)2Cl2]2 [Complex 5], in data set [1], the IC50 was determined as 14 ± 2.1 µM. Moreover, the “cytotoxic effect in HeLa” value in data set [2] is “practically non-cytotoxic”.
For [Ni(pqx)Cl2]2 [Complex 7], the IC50 in data set [1] was 5.6 ± 0.34 µM. For the same molecule, in data set [2], the “cytotoxic effect in HeLa” value is on record as “only slightly affected” and the concentration for half-maximal inhibition (IC50) worked out at 82.3 ± 9.49 µM.
The corresponding values for mer-[Cr(pqx)Cl3(H2O)] [Complex 1] are 54.6 ± 10.4 µM, “only slightly affected” and 82.8 ± 3.12 µM.
